Data taken from paper PMC4536076, “Chemical Library Screening and Structure-Function Relationship Studies Identify Bisacodyl as a Potent and Selective Cytotoxic Agent Towards Quiescent Human Glioblastoma Tumor Stem-Like Cells” (PLoS ONE, 2015).
Structures can show the parent of a compound that is named as a salt. Where two headings read alike, the source gives them in different places.

Tests used:
[1] = system: fetal neural stem cells (f-NSC); assay: ATP-Glo dose-response, fetal neural stem cells; format: cell-based; conditions: Homo sapiens, Neural stem cell; ATP Glo readout, 24 h treatment
[2] = system: proliferating TG1 GSCs; conditions: primary screen, 50 μM, 24 h
Description: (§1) Proliferating or quiescent TG1 GSCs were seeded (30 000 and 40 000 viable cells/well, respectively) into 96-well opaque bottom plates (Greiner) with the Biomek FX robot (Beckman Coulter). Each compound from the Prestwick Library was then added (final concentration: 50 μM; 1% DMSO). Each molecule was tested once. Negative control wells (12/96 per assay plate) contained cells treated with 1% DMSO (final concentration) and positive control wells (4/96 per assay plate) contained cells treated with the fungal toxin ophiobolin A (Sigma Aldrich) at 50 μM with 1% DMSO. […] Luminescence in each well was measured with the Victor3 plate reader (PerkinElmer).
(§2) Relative ATP levels in each well were determined by calculating the percentage of luminescent signal in the well with respect to the average signal measured in negative control wells.
(§3) Primary screen hits were further tested in duplicate, at two concentrations (50 and 5 μM) on proliferating and quiescent TG1 GSCs. Cell plating and treatment with compounds were as for the primary screen. Hit selection/confirmation criteria for quiescent cells were as described above.

[3] = system: proliferating TG1 GSCs; assay: ATP-Glo dose-response, proliferating TG1 GSCs; format: cell-based, human; conditions: for EC50: Homo sapiens
Description: (§4) The EC50 value was determined for each compound by fitting the data points according to the following equation: y=Smax+Smin*(x*1/EC50)^n/1+(x*1/EC50)^n where y represents the expected response, x is the chemical compound concentration, S max and S min are the maximum and minimum responses recorded, respectively and n is the Hill coefficient. Curve fitting was performed using Microsoft Excel Solver component.
(§5) Proliferating or quiescent TG1 cells were seeded in 50 μL of their respective media (30 000 and 40 000 viable cells/well, respectively) into 96-well opaque bottom plates (Greiner, Courtaboeuf, France). Compound treatment was performed by adding 50 μL of compound solutions (in the presence of 2% DMSO in culture medium). […] All compounds were tested in triplicate in each experiment. Independent experiments were performed at least twice for almost all of the compounds.

[4] = system: quiescent TG1 GSCs; assay: ATP-Glo dose-response, quiescent TG1 GSCs; format: cell-based, human; conditions: for EC50: Homo sapiens; for fold increase in EC50 (activity decrease) compared to DDPM (compound 2): quiescent TG1 GSCs
Description: as §4, §5

[5] = system: proliferating TG16 GSCs; assay: ATP-Glo dose-response, proliferating TG16 GSCs; format: cell-based, human; conditions: ATP Glo readout, 24 h treatment, read-out: P TG16 GSCs EC50
Description: as §4
(§6) Similar dose response curves were performed using GSCs isolated from GBM of two other patients (TG16 and OB1 GSCs) grown under proliferating and quiescent conditions.

[6] = system: quiescent TG16 GSCs; assay: ATP-Glo dose-response, quiescent TG16 GSCs; format: cell-based, human; conditions: ATP Glo readout, 24 h treatment, read-out: Q TG16 GSCs EC50
Description: as §4, §6

[7] = system: proliferating OB1 GSCs; assay: ATP-Glo dose-response, proliferating OB1 GSCs; format: cell-based; conditions: Homo sapiens; ATP Glo readout, 24 h treatment; read-out: P OB1 GSCs EC50
Description: as §4, §6

[8] = system: quiescent OB1 GSCs; assay: ATP-Glo dose-response, quiescent OB1 GSCs; format: cell-based, human; conditions: ATP Glo readout, 24 h treatment, read-out: Q OB1 GSCs EC50
Description: as §4, §6

[9] = system: primary astrocytes (HA cells); assay: ATP-Glo dose-response, primary astrocytes; format: cell-based, human; conditions: ATP Glo readout, 24 h treatment
[10] = system: HEK 293 cells; assay: ATP-Glo dose-response, HEK 293 cells; format: cell-based, human; conditions: ATP Glo readout, 24 h treatment
Description: as §4, with “component. […]” for “component.”

[11] = system: quiescent TG1 GSCs; conditions: primary screen, 50 μM, 24 h
Description: as §1, §2, §3

[12] = 24 h, SAR study, ATP-Glo cell survival assay, 24 h, triplicate, read-out: Proliferating TG1 GSCs EC50
[13] = 24 h, SAR study, ATP-Glo cell survival assay, 24 h, triplicate, read-out: Quiescent TG1 GSCs EC50
[14] = SAR study, ATP-Glo cell survival assay, 24 h, triplicate
[15] = 24 h, ATP Glo readout, 24 h treatment, n = 3, read-out: P TG1 GSCs EC50
[16] = 24 h, ATP Glo readout, 24 h treatment, n = 3, read-out: Q TG1 GSCs EC50

Compound | EC50 [1] [µM] | Activity on proliferating TG1 GSCs (hit compounds reducing ATP levels) [2] | EC50 [4, 13] [µM] | EC50 [3, 15] [µM] | EC50 [4, 16] [µM] | EC50 ([5]; Homo sapiens) [µM] | EC50 ([6]; Homo sapiens) [µM] | EC50 [7] [µM] | EC50 ([8]; Homo sapiens) [µM] | EC50 ([9]; Homo sapiens, Astrocyte) [µM] | EC50 ([10]; Homo sapiens, HEK293) [µM] | Activity on quiescent TG1 GSCs (hit compounds reducing ATP levels) [11] | other results
COc1ccc(CCN2CCC(Nc3nc4ccccc4n3Cc3ccc(F)cc3)CC2)cc1 [Astemizole] | 6.3 ± 0.2 | yes | – | – | – | – | – | – | – | – | – | – | –
Oc1ccc(C(c2ccccc2)c2ccc(O)cc2)cc1 [Compound 12, 4,4’-dihydroxyphenyl-phenyl-methane] | – | – | 14.2 ± 8.8 | – | – | – | – | – | – | – | – | – | EC50 [3, 12]: 60.8 ± 10.4 µM; fold increase in EC50 (activity decrease) compared to DDPM (compound 2) [4]: at least 10 fold
Oc1ccc(Cc2ccc(O)cc2)cc1 [Compound 13, Bis(4-hydroxyphenyl)methane] | – | – | – | – | – | – | – | – | – | – | – | – | Proliferating TG1 GSCs EC50 [3, 14]: No activity; Quiescent TG1 GSCs EC50 [4, 14]: No activity
CC(=O)Oc1ccc(C(c2ccc(OC(C)=O)cc2)c2cccc[n+]2C)cc1 [Compound 14, 2-(bis(4-acetoxyphenyl)methyl)-1-methylpyridinium iodide] | – | – | > 100 | – | – | – | – | – | – | – | – | – | EC50 [3, 12]: > 100 µM
Oc1ccc(C(c2ccc(O)cc2)c2cccnc2)cc1 [Compound 15, 4,4'-dihydroxyphenyl-3-pyridinyl-methane] | – | – | 8 ± 3 | – | – | – | – | – | – | – | – | – | EC50 [3, 12]: > 100 µM; fold increase in EC50 (activity decrease) compared to DDPM (compound 2) [4]: ~ 8 fold
Oc1ccc(C(c2ccncc2)c2ccc(O)cc2)cc1 [Compound 16, 4,4'-dihydroxyphenyl-4-pyridinyl-methane] | – | – | 39 ± 2 | – | – | – | – | – | – | – | – | – | EC50 [3, 12]: > 100 µM; fold increase in EC50 (activity decrease) compared to DDPM (compound 2) [4]: ~ 40 fold
Oc1ccc(C(c2ccc(O)cc2)c2cc(Br)ccn2)cc1 [Compound 18, 4,4'-dihydroxyphenyl-2-(4-bromopyridinyl)-methane] | – | – | 0.36 ± 0.06 | – | – | – | – | – | – | – | – | – | Proliferating TG1 GSCs EC50 [3, 14]: No activity
CC(C)(C)OC(=O)NCCCCCCNC(=O)CCCC#Cc1cccc(C(c2ccc(O)cc2)c2ccc(O)cc2)n1 [Compound 19, tert-butyl(6-(6-(6-(bis(4-hydroxyphenyl)methyl)pyridin-2-yl)hex-5-ynamido)hexyl)carbamate] | – | – | 3.84 | – | – | – | – | – | – | – | – | – | Proliferating TG1 GSCs EC50 [3, 14]: No activity
Cc1c2ccncc2c(C)c2c1[nH]c1ccccc12 [Ellipticine] | 7 ± 2 | yes | – | 13 ± 1 | 19 ± 5 | 13 ± 1 | 56 ± 10 | 8 ± 1 | 30 ± 9 | 5 ± 1 | 13 ± 2 | yes | –
C=C(CC)C(=O)c1ccc(OCC(=O)O)c(Cl)c1Cl [Ethacrynic acid] | 21 ± 11 | – | – | 81 ± 11 | 41 ± 11 | > 100 | 12 ± 2 | 60 ± 20 | 24 ± 3 | > 100 | > 100 | yes | –
CCOC(=O)C1=C(C)NC(C)=C(C(=O)OC)C1c1cccc(Cl)c1Cl (stereo not drawn) [Felodipine] | 59 ± 12 | yes | – | 38 ± 1 | 30 ± 3 | 39 ± 4 | 33 ± 3 | 43 ± 5 | 41 ± 6 | 36 ± 6 | 55 ± 2 | yes | –
CC(NCCC(c1ccccc1)c1ccccc1)c1ccccc1 (stereo not drawn) [Fendiline hydrochloride] | 11 ± 1 | – | – | 22 ± 1 | 32 ± 1 | 42 ± 1 | 45 ± 16 | 40 ± 13 | 48 ± 9 | 42 ± 8 | 34 ± 9 | yes | –
CC[C@H](C)[C@H]1O[C@]2(CC[C@@H]1C)C[C@@H]1C[C@@H](C/C=C(\C)[C@@H](O[C@H]3C[C@H](OC)[C@@H](O[C@H]4C[C@H](OC)[C@@H](O)[C@H](C)O4)[C@H](C)O3)[C@@H](C)/C=C/C=C3\CO[C@@H]4[C@H](O)C(C)=C[C@@H](C(=O)O1)[C@]34O)O2 [Ivermectin] | 4 ± 1 | yes | – | – | – | 1.5 ± 0.2 | 6 ± 2 | 3 ± 1 | 7 ± 2 | 3 ± 1 | 13 ± 1 | yes | EC50 ([3]; ATP Glo readout, 24 h treatment, n = 3, read-out: P TG1 GSCs EC50): 3 ± 1 µM; EC50 ([4]; ATP Glo readout, 24 h treatment, n = 3, read-out: Q TG1 GSCs EC50): 4 ± 1 µM
O=c1cc(-c2ccc(O)c(O)c2)oc2cc(O)cc(O)c12 [Luteolin, 3',4',5,7-tetrahydroxy-flavone] | 70 ± 36 | – | – | > 100 | 20 ± 2 | > 100 | 34 ± 4 | > 100 | 18 ± 4 | > 100 | > 100 | yes | –
C#C[C@]1(O)CC[C@H]2[C@@H]3CCC4=CCCC[C@@H]4[C@H]3CC[C@@]21C [Lynestrenol] | 23 ± 5 | yes | – | 36 ± 2 | 43 ± 8 | 32 ± 2 | 28 ± 6 | 26 ± 5 | 56 ± 10 | 20 ± 1 | 57 ± 8 | – | –
CC(Cc1ccccc1)NCCC(c1ccccc1)c1ccccc1 (stereo not drawn) [Prenylamine lactate] | 9 ± 2 | yes | – | 22 ± 3 | 27 ± 3 | 32 ± 2 | 42 ± 8 | 30 ± 7 | 49 ± 4 | 30 ± 2 | 25 ± 6 | yes | –
CC(=O)[C@H]1CC[C@H]2[C@@H]3CCC4=CC(=O)CC[C@]4(C)[C@H]3CC[C@]12C [Progesterone] | > 100 | – | – | > 100 | 25 ± 11 | 75 ± 6 | 25 ± 9 | 89 ± 29 | 23 ± 11 | > 100 | 36 ± 10 | yes | –
CCCCCCCCNC(C)C(O)c1ccc(SC(C)C)cc1 (stereo not drawn) [Suloctidil] | 5 ± 1 | yes | – | 11 ± 1 | 13 ± 1 | 13.5 ± 0.1 | 14 ± 6 | 15 ± 2 | 20 ± 4 | 11 ± 1 | 10 ± 1 | yes | –
OCCN1CCN(CC/C=C2/c3ccccc3Sc3ccc(Cl)cc32)CC1 [Zuclopenthixol hydrochloride] | 13 ± 1 | yes | – | 20 ± 3 | 52 ± 3 | 29 ± 5 | 48 ± 18 | 27 ± 9 | > 100 | 12 ± 1 | 29 ± 1 | – | –
Beta-Escin | – | yes | – | – | – | – | – | – | – | – | – | yes | EC50 [5]: 6 ± 1 µM; EC50 [6]: 8 ± 1 µM; EC50 [8]: 6 ± 1 µM; EC50 [9]: 7 ± 1 µM; EC50 [10]: 31 ± 1 µM
